According to patent US20180141939A1, “SOLID FORMS OF A BET INHIBITOR” (Gilead Sciences, Inc., priority 2016, published 2018):

Key:
Assay type in all cases: physicochemical
[1] = Approximate solubility in single solvents
Text: (§1) In some embodiments, Compound I phosphate Form I, once formed, e.g., via the reactive crystallization methods disclosed herein, may be recrystallized from a variety of single solvents or binary solvent systems (e.g., solvent/anti-solvent systems) to promote desired physical characteristics such as crystal size. Recrystallization of Compound I phosphate Form I may occur with or without the addition of Compound I phosphate Form I seed material. The single solvents and binary solvent systems in which Compound I phosphate Form I may be recrystallized include, but are not limited to, MeOH, MeOH/EtOAc, DMA/MeCN, DMAc/toluene, DMF/MeCN, DMAc/MeCN, DMF/EtOAc, DMF/toluene, DMSO/MeCN, DMSO/MeCN, DMSO/IPA, NMP/MeCN, NMP/IPA, and NMP/EtOAc. A summary of the approximate solubility of Compound I phosphate Form I in various single solvents and binary solvent systems is provided in Tables I and II, respectively.

[2] = Approximate solubility in 1:1 (v/v) binary solvents
Text: as §1

[3] = Kinetic aqueous solubility / solubility in water of salt and co-crystal forms; details: aqueous
[4] = Solid-state chemical stability at various storage conditions
[5] = Dissolution in 50 mM sodium acetate solution, pH 5; details: pH of 5
Protocol: The dissolution of […] and […] was also evaluated in a 50 mM sodium acetate solution at a pH of 5 (FIG. 92).

[6] = Relative stability of solid forms (competitive slurries); details: statement in words

Approximate Solubility ([1]; 1,4-dioxane, 20-80° C.): remained a slurry | Approximate Solubility ([1]; 1-Propanol, 20-80° C.): remained a slurry | Approximate Solubility ([1]; 2-Butanol, 20-80° C.): remained a slurry | Approximate Solubility ([1]; 2-MeTHF, 20° C.): 0.64 mg-solid/ml-solvent | Approximate Solubility ([1]; 2-Propanol/IPA, 20° C.): 1.02 mg-solid/ml-solvent | Approximate Solubility ([1]; Acetic Acid, 20° C.): ~190 mg-solid/ml-solvent | Approximate Solubility ([1]; Acetic Acid, 50° C.): >190 mg-solid/ml-solvent | Approximate Solubility ([1]; Acetic Acid, 80° C.): >>190 mg-solid/ml-solvent | Approximate Solubility ([1]; Acetone, 20° C.): 0.48 mg-solid/ml-solvent | Approximate Solubility ([1]; Acetonitrile, 20° C.): 0.23 mg-solid/ml-solvent | Approximate Solubility ([1]; DCM (form changes), 20° C.): 1.54 mg-solid/ml-solvent | Approximate Solubility ([1]; DMAc, 50° C.): >78 mg-solid/ml-solvent | Approximate Solubility ([1]; DMAc, 80° C.): >>78 mg-solid/ml-solvent | Approximate Solubility ([1]; DMF, 50° C.): <70 mg-solid/ml-solvent | Approximate Solubility ([1]; DMF, 80° C.): >70 mg-solid/ml-solvent | Approximate Solubility ([1]; DMSO, 50° C.): >185 mg-solid/ml-solvent | Approximate Solubility ([1]; DMSO, 80° C.): >>185 mg-solid/ml-solvent | Approximate Solubility ([1]; EtOH/water, 20° C.): 22.7 mg-solid/ml-solvent | Approximate Solubility ([1]; Ethanol, 20° C.): 2.46 mg-solid/ml-solvent | Approximate Solubility ([1]; Ethyl acetate, 20° C.): 0.45 mg-solid/ml-solvent | Approximate Solubility ([1]; Heptane, 20° C.): <LOD | Approximate Solubility ([1]; Heptane, cell spans the 50° C. and 80° C. columns): remained a slurry | Approximate Solubility ([1]; Hexane, 20-80° C.): API adhered to vial walls | Approximate Solubility ([1]; Isopropyl acetate, 20° C.): 0.37 mg-solid/ml-solvent | Approximate Solubility ([1]; MEK, 20° C.): 2.14 mg-solid/ml-solvent | Approximate Solubility ([1]; MIBK, 20° C.): 0.31 mg-solid/ml-solvent | Approximate Solubility ([1]; MTBE, 20° C.): 0.16 mg-solid/ml-solvent | Approximate Solubility ([1]; Methanol, 20° C.): 12.56 mg-solid/ml-solvent | Approximate Solubility ([1]; NMP, 50° C.): >135 mg-solid/ml-solvent | Approximate Solubility ([1]; NMP, 80° C.): >>135 mg-solid/ml-solvent | Approximate Solubility ([1]; THF, 20° C.): 0.48 mg-solid/ml-solvent | Approximate Solubility ([1]; Toluene, 20° C.): 1.34 mg-solid/ml-solvent | Approximate Solubility ([1]; Water, 20° C.): 12.16 mg-solid/ml-solvent | Approximate Solubility ([2]; DMAc/2-MeTHF 1:1 (v/v), 50° C.): ~17.2 mg-solid/ml-solvent | Approximate Solubility ([2]; DMAc/Acetone 1:1 (v/v), 50° C.): ~11.3 mg-solid/ml-solvent | Approximate Solubility ([2]; DMAc/EtOAc 1:1 (v/v), 80° C.): ~10.8 mg-solid/ml-solvent | Approximate Solubility ([2]; DMAc/IPA 1:1 (v/v), 80° C.): ~21 mg-solid/ml-solvent | Approximate Solubility ([2]; DMAc/IPAc 1:1 (v/v), 50° C.): ~7.7 mg-solid/ml-solvent | Approximate Solubility ([2]; DMAc/MIBK 1:1 (v/v), 50° C.): ~15 mg-solid/ml-solvent | Approximate Solubility ([2]; DMAc/MeCN 1:1 (v/v), 50° C.): ~11.5 mg-solid/ml-solvent | Approximate Solubility ([2]; DMF/2-MeTHF 1:1 (v/v), 50° C.): ~14.3 mg-solid/ml-solvent | Approximate Solubility ([2]; DMF/Acetone 1:1 (v/v), 50° C.): ~19.5 mg-solid/ml-solvent | Approximate Solubility ([2]; DMF/EtOAc 1:1 (v/v), 50° C.): ~10.8 mg-solid/ml-solvent | Approximate Solubility ([2]; DMF/IPA 1:1 (v/v), 50° C.): ~14 mg-solid/ml-solvent | Approximate Solubility ([2]; DMF/IPAc 1:1 (v/v), 50° C.): ~13.7 mg-solid/ml-solvent | Approximate Solubility ([2]; DMF/MIBK 1:1 (v/v), 80° C.): ~6 mg-solid/ml-solvent | Approximate Solubility ([2]; DMF/MIBK 1:1 (v/v), cell spans the 20° C. and 50° C. columns): remained a thin slurry | Approximate Solubility ([2]; DMF/MeCN 1:1 (v/v), 50° C.): ~11 mg-solid/ml-solvent | Approximate Solubility ([2]; DMSO/2-MeTHF 1:1 (v/v), 20° C.): >51.5 mg-solid/ml-solvent | Approximate Solubility ([2]; DMSO/2-MeTHF 1:1 (v/v), 50° C.): >>51.5 mg-solid/ml-solvent | Approximate Solubility ([2]; DMSO/2-MeTHF 1:1 (v/v), 80° C.): >>>51.5 mg-solid/ml-solvent | Approximate Solubility ([2]; DMSO/Acetone 1:1 (v/v), 20° C.): >30 mg-solid/ml-solvent | Approximate Solubility ([2]; DMSO/Acetone 1:1 (v/v), 50° C.): >>30 mg-solid/ml-solvent | Approximate Solubility ([2]; DMSO/Acetone 1:1 (v/v), 80° C.): >>>30 mg-solid/ml-solvent | Approximate Solubility ([2]; DMSO/EtOAc 1:1 (v/v), 50° C.): >51.5 mg-solid/ml-solvent | Approximate Solubility ([2]; DMSO/EtOAc 1:1 (v/v), 80° C.): >>51.5 mg-solid/ml-solvent | Approximate Solubility ([2]; DMSO/IPA 1:1 (v/v), 80° C.): >41 mg-solid/ml-solvent | Approximate Solubility ([2]; DMSO/IPAc 1:1 (v/v), 20° C.): >32 mg-solid/ml-solvent | Approximate Solubility ([2]; DMSO/IPAc 1:1 (v/v), 50° C.): >>32 mg-solid/ml-solvent | Approximate Solubility ([2]; DMSO/IPAc 1:1 (v/v), 80° C.): >>>32 mg-solid/ml-solvent | Approximate Solubility ([2]; DMSO/MIBK 1:1 (v/v), 50° C.): >50.5 mg-solid/ml-solvent | Approximate Solubility ([2]; DMSO/MIBK 1:1 (v/v), 80° C.): >>50.5 mg-solid/ml-solvent | Approximate Solubility ([2]; DMSO/MeCN 1:1 (v/v), 50° C.): >33.5 mg-solid/ml-solvent | Approximate Solubility ([2]; DMSO/MeCN 1:1 (v/v), 80° C.): >>33.5 mg-solid/ml-solvent | Approximate Solubility ([2]; HOAC/2-MeTHF 1:1 (v/v), 80° C.): ~15.3 mg-solid/ml-solvent | Approximate Solubility ([2]; HOAC/Acetone 1:1 (v/v), 50° C.): >43 mg-solid/ml-solvent | Approximate Solubility ([2]; HOAC/Acetone 1:1 (v/v), 80° C.): >>43 mg-solid/ml-solvent | Approximate Solubility ([2]; HOAC/EtOAc 1:1 (v/v), 50° C.): ~13.8 mg-solid/ml-solvent | Approximate Solubility ([2]; HOAC/EtOAc 1:1 (v/v), 80° C.): >41.5 mg-solid/ml-solvent | Approximate Solubility ([2]; HOAC/IPA 1:1 (v/v), 80° C.): >44.5 mg-solid/ml-solvent | Approximate Solubility ([2]; HOAC/IPAc 1:1 (v/v), 50° C.): ~8.3 mg-solid/ml-solvent | Approximate Solubility ([2]; HOAC/IPAc 1:1 (v/v), 80° C.): >8.3 mg-solid/ml-solvent | Approximate Solubility ([2]; HOAC/MIBK 1:1 (v/v), 50° C.): ~22 mg-solid/ml-solvent | Approximate Solubility ([2]; HOAC/MIBK 1:1 (v/v), 80° C.): >22 mg-solid/ml-solvent | Approximate Solubility ([2]; HOAC/MeCN 1:1 (v/v), 20° C.): >30.5 mg-solid/ml-solvent | Approximate Solubility ([2]; HOAC/MeCN 1:1 (v/v), 50° C.): >>30.5 mg-solid/ml-solvent | Approximate Solubility ([2]; HOAC/MeCN 1:1 (v/v), 80° C.): >>>30.5 mg-solid/ml-solvent | Approximate Solubility ([2]; NMP/2-MeTHF 1:1 (v/v), 20° C.): ~12 mg-solid/ml-solvent | Approximate Solubility ([2]; NMP/2-MeTHF 1:1 (v/v), 80° C.): ~24 mg-solid/ml-solvent | Approximate Solubility ([2]; NMP/Acetone 1:1 (v/v), 50° C.): >24 mg-solid/ml-solvent | Approximate Solubility ([2]; NMP/Acetone 1:1 (v/v), 80° C.): >>24 mg-solid/ml-solvent | Approximate Solubility ([2]; NMP/IPAc 1:1 (v/v), 50° C.): ~15 mg-solid/ml-solvent | Approximate Solubility ([2]; NMP/IPAc 1:1 (v/v), 80° C.): >44 mg-solid/ml-solvent | Approximate Solubility ([2]; NMP/MeCN 1:1 (v/v), 80° C.): >27.5 mg-solid/ml-solvent | kinetic aqueous solubility [3]: about 3 mg/mL | % AN ([4]; 4° C., 1 month): 97.1% | % LS ([4]; 4° C., 1 month): 100.8% | % AN ([4]; 25° C./60% RH, 1 month): 97.1% | % LS ([4]; 25° C./60% RH, 1 month): 100.8% | % AN ([4]; 40° C./75% RH, 1 month): 97.2% | % LS ([4]; 40° C./75% RH, 1 month): 100.7% | % AN ([4]; 40° C./75% RH, open, 1 month): 97.1% | % LS ([4]; 40° C./75% RH, open, 1 month): 100.0% | % AN ([4]; 60° C., 1 month): 97.1% | % LS ([4]; 60° C., 1 month): 100.7% | % AN ([4]; Initial Time): 97.1% | chemical stability ([4]; up to about 40° C./75% RH for about 3 months): chemically stable | chemical stability ([4]; various conditions for about 1 month): chemically stable | % AN ([4]; −20° C., 1 month): 96.9% | % LS ([4]; −20° C., 1 month): 100.9%
SMILES: Cc1noc(C)c1-c1cc(C(O)(c2ccccn2)c2ccccn2)c2nc(C3CC3)[nH]c2c1 [Compound I phosphate Form I, (2-cyclopropyl-6-(3,5-dimethylisoxazol-4-yl)-1H-benzo[d]imidazol-4-yl)di(pyridin-2-yl)methanol]
dissolution [5]: dissolve rapidly and maintain solubility for about 24 hours | thermodynamic / physical stability of the solid form [6]: most thermodynamically stable form of Compound I phosphate in most solvents
